Reference: patent US20200323797A1, “Treatment of Obesity-related Conditions” (INSTITUTO DE MEDICINA MOLECULAR, priority 2017, published 2020)
Where “and” joins values, the source holds several entries; their conditions need not be identical. Equal entries are not always repeated. Structures can show the parent of a compound that is named as a salt.

How the values were obtained:
[1] = test system: superior cervical ganglia sympathetic neurons from GCaMP3+ mice; experiment: Intracellular calcium imaging of ACh-stimulated sympathetic neurons; assay type: cell-based, mouse; details: 15 μM drug for 24 h; 10 μM ACh for 40 s
Method: For Ca^2+ experiments, sympathetic neurons obtained from GCaMP3^+ mice. […] At 7 DIV, coverslips with sympathetic neurons from GCaMP3^+ mice were mounted on an inverted microscope with epifluorescent optics (Axiovert 135TV, Zeiss) equipped with a xenon lamp (located at a Lambda DG-4 (Sutter Instrument) and band-pass filter of 450-490 nm wavelengths. Ca^2+ measurements were performed at 37° C., as reported in Jacob et al., 2014(33) Throughout the experiments the Ach was applied focally through a drug filled micropipette placed under visual guidance over a single neuronal cell. Drug release was performed by focal pressure (10 psi for 40 s) through a Toohey Spritzer pressure System Ile (Toohey Company). […] Images were obtained every 250 ms by exciting the preparations at 450-490 nm and the emission wavelength was set to 510 nm. Neurons were imaged with a cooled CCD camera (Photometrics CoolSNAP fx), processed and analysed using the software MetaFluor (Universal laging, West Chester, Pa.). Ca^2+ levels were recorded at the cell body of neurons (manually defined over the cell profile) in the field of view and variations were estimated as changes of the fluorescence signal over the baseline (ΔF/F0=[(Fpost−Frest)/Frest]).

[2] = test system: LSL-DTR (Control) and TH-cre; LSL-DTR (Symp) mice; experiment: High fat diet challenge in Control and sympathectomized (Symp) mice, 6 weeks; assay type: in vivo, mouse; details: for BW gain: 6 weeks HFD, 0.12 mol/kg daily IP; for Locomotor activity, total distance traveled: 10-min video-tracking, 1 h post-injection; for Plasma Glycerol levels: 2 h post-injection; for Food intake: HFD
Method: For detailed characterization refer to Pereira et al. 2017(52). Briefly, TH-cre; LSL-DTR mice were used for this experiment and LSL-DTR mice were used as controls. PEGylated Diphtheria Toxin (PEGyDT) was administered once a day for 8 consecutive days (25 ng/g of BW, IP injections). All following experiments were performed at least 24 h post the last injection.
(§1) Blood glucose was measured using a glucometer (Accu-Check, Roche). Analysis of Insulin, Triglycerides, Glycerol and FFA levels in plasma as performed using Mouse Ultrasensitive Insulin ELISA (Alpco), Triglyceride Quantification Kit (Abcam), Free Glycerol Reagent (Sigma) and Glycerol Standard Solution (Sigma), and Free Fatty Acid Quantification Kit (MAK044, Sigma), respectively according to manufacturer's instructions.
[…]. Tissues were homogenized and sonicated in homogenization buffer (1 N HCl, 1 mM EDTA, 4 mM Sodium metabisulfite), and cellular debris were pelleted by centrifugation at 20,000 g for 10 min at 4° C.). All tissue samples were normalized to total tissue protein concentration.
(§2) After 3 weeks of HFD exposure and treatment, mice were either acclimated to tracking cages for 1 week before starting the 72 h locomotion measurements using the LabMaster tracking system (TSE Systems; Bad Homburg); or filmed for 20-30 min, with a ZEISS optics camera, 1 h post injection inside their normal housing cage, for assessment of total distance traveled. Footage-records were filtered using the video editor Avidemux (Avidemux 2.7.1) and 10 or 15 min distance computations were quantified using the TrackMate tracking plugin from Fiji (Fiji; Wisconsin-Madinson).

[3] = test system: C57BL/6 mice; experiment: Acute behaviour and WAT NE content after single IP injection; assay type: in vivo, mouse
Method: NE levels were determined with an NE ELISA kit (Labor Diagnostika Nord GmbH). Tissues were homogenized and sonicated in homogenization buffer (1 N HCl, 1 mM EDTA, 4 mM Sodium metabisulfite), and cellular debris were pelleted by centrifugation at 20,000 g for 10 min at 4° C.). All tissue samples were normalized to total tissue protein concentration.
as §2

[4] = test system: C57BL/6 mice; experiment: Faecal output and plasma triglycerides during HFD feeding; assay type: in vivo, mouse
Method: as §1
24 h faecal output was collected and weighed. The faeces were washed with 1×PBS and total triglyceride content was extracted by homogenization and boiling, for 2 cycles of 5 min, in 5% NP-40. Triglyceride content was measured using Triglyceride Quantification Kit (Abcam), according to manufacturer's instructions, and normalized to the weight of total faecal output.

[5] = test system: C57BL/6 mice; experiment: Diet induced obesity, 10 weeks HFD with chronic treatment; assay type: in vivo, mouse
[6] = test system: C57BL/6 mice; experiment: Thermoregulation studies (thermography, rectal probe) during DIO; assay type: in vivo, mouse; details: 2 h post-injection
Method: All measurements were done in ad libitum fed mice 2 h post-injections. Rectal temperature was measured with an electronic thermometer (Precision). BAT and Tail thermographic pictures were taken using a Compact-Infrared-Thermal-Imaging-Camera (FLIR; West Mailing) and FLIR-Tools-Software (FLIR; West Mailing) to quantify local temperatures.

[7] = test system: SCG sympathetic neurons from C57BL/6 mice; experiment: Whole cell patch-clamp electrophysiology of sympathetic neurons
[8] = molecular target: T1, Slc6a2 (Mus musculus, UniProt O55192); experiment: NE uptake by SAMs in SCG explant cultures, SLC6A2 blocker; assay type: cell-based; details: 100 nM Nisoxetine hydrochloride
T1 construct: CD45.2+F4/80+ cells isolated from the SCG of either B6 or Slc6a2−/− mice; from tissue; sorted CD45+F4/80+ sympathetic neuron-associated macrophages (sympathetic neurons are also present)

[9] = molecular target: T2, MAOa (Mus musculus, UniProt Q64133); experiment: NE content of SAMs and medium in SCG explant cultures, MAOA blocker; assay type: cell-based; details: ACh-activated SCG explants; 100 μM Clorgyline, 2 hours
T2 construct: CD45.2+F4/80+ cells isolated from the SCG of either B6 or Slc6a2−/− mice; from tissue; sorted CD45+F4/80+ SAMs (neuronal MAOa may also contribute to NE in the medium)
T2 sequence (Q64133 1-526): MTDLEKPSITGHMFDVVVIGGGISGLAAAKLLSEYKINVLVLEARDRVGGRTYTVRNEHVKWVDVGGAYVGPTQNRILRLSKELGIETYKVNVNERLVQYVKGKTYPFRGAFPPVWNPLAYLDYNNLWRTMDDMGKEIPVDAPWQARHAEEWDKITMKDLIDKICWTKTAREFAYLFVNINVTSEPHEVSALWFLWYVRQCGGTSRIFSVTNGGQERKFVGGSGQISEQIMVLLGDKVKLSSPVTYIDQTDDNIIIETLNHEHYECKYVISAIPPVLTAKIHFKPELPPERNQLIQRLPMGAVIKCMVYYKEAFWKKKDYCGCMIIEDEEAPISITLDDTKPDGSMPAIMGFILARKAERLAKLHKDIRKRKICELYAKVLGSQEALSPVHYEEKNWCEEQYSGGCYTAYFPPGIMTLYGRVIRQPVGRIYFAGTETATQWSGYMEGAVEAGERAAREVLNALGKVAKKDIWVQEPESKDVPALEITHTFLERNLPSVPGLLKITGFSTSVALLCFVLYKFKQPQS
Method: SCG were removed from 4-6 weeks old mice under a stereomicroscope and placed in Dulbecco's Modified Eagle's medium (DMEM, Invitrogen, Carlsbad, Calif., U.S.A.). Ganglia were cleaned from the surrounding tissue capsule and transferred into 8-well Tissue Culture Chambers (Sarstedt, Nümbrecht, Germany) that were previously coated with poly-D-lysine (Sigma/Aldrich, Steinheim, Germany) in accordance to the manufacturers instructions. Ganglia were then covered with 5 μl of Matrigel (BD Bioscience, San Jose, Calif., U.S.A.) and incubated for 7 min at 37° C. DMEM without phenol red (Invitrogen) supplemented with 10% fetal bovine serum (Invitrogen), 2 mM L-Glutamine (Biowest, Nuaillé, France) and nerve growth factor (Sigma/Aldrich) were subsequently added. 12 SCG explants cultures were prepared per condition. SCG ganglia were cultured for minimum 24 hours prior to further manipulation. […]
Depolarization of sympathetic neurons in TH-Cre/LSLChR2-YFP explant cultures were performed on a Yokogawa CSUX Spinning Disk confocal using the 488 nm laser line and pointing at the region of interest (ROI) for 200 μs. […] NE in the SCG explant culture medium and sorted CD45, F4/80-double positive cells was determined with NE ELISA kit (Labor Diagnostika Nord GmbH, Nordhorn, Germany, cat # BA E-5200). […]

[10] = fed-state, 2 h post-injection without access to food

T1 sequence (O55192 whole entry): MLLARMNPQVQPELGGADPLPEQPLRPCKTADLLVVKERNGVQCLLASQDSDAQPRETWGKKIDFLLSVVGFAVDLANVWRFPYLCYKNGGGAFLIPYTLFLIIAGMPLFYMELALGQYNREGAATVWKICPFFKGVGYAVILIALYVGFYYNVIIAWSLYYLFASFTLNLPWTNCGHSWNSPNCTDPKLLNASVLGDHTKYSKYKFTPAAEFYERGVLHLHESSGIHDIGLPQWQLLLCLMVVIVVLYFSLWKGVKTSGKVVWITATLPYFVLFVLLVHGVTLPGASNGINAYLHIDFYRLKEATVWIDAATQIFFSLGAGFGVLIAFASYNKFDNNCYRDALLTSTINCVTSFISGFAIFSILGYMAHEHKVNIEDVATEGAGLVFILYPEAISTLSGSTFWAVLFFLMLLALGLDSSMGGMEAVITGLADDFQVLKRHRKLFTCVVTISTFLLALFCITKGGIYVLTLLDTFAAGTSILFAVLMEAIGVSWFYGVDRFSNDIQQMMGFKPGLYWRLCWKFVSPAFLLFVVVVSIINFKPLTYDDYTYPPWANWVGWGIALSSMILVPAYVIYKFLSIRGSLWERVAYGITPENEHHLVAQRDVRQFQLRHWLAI

CC(N)Cc1ccccc1 (centres unmarked) [AMPH, Amphetamine]
ACh-induced intracellular [Ca2+] increase, ΔF/F0 [1]: 1.71±0.05
NE content in inguinal WAT ([2]; Control mice): 2.58±0.28 ng/mg of total tissue protein
BW gain ([2]; Control mice): 12.67±1.79%
Locomotor activity, total distance traveled ([2]; Control mice): 21.88±1.09 m
Plasma Glycerol levels ([2]; Control mice): 89.70 ± 10.20 µg/mL
Food intake ([2]; Control mice): 2.08 ± 0.25 g/day
NE content in inguinal WAT ([2]; Symp mice): 1.51 ± 0.20 ng/mg
BW gain ([2]; Symp mice): 39.19±4.54%
Locomotor activity, total distance traveled ([2]; Symp mice): 24.30±2.88 m
Plasma Glycerol levels ([2]; Symp mice): 59.07 ± 7.83 µg/mL
Food intake ([2]; Symp mice): 2.00 ± 0.12 g/day
Locomotion, total distance traveled ([3]; 15-min video-tracking, 1 h post-injection): 70.45±7.54 m
NE content in iWAT ([3]; 2 h post-injection): 9.69 ± 1.49 ng/mg
NE content in gWAT ([3]; 2 h post-injection, per total tissue protein): 6.63 ± 0.58 ng/mg
Food intake ([3]; 24 h post-injection, 0.12 mol/kg IP): 2.57 ± 0.15 g
Total 24 h faecal output ([4]; HFD feeding): 0.48 ± 0.03 g
Faecal triglycerides (TGs) levels ([4]; HFD feeding, per mg of faeces): 1.89 ± 0.15 nmol/mg
Plasma TGs levels [4, 10]: 3.48 ± 0.01 µmol/mL
Locomotor activity ([5]; (a.u.), fourth week of HFD): 53.72±5.27 counts/day
NE levels in the liver ([5]; HFD fed, per total protein): 1.327 ± 0.262 ng/mg
NE levels in the muscle ([5]; HFD fed, per total protein): 0.493 ± 0.030 ng/mg
iWAT adipocyte size ([5]; after 10 weeks of HFD): 1152.0±58.9 μm^2
iWAT weight, % of total BW ([5]; after 10 weeks of HFD): 0.92±0.13%
NE content in iWAT ([5]; after 10 weeks of HFD and treatment, per total protein): 1.166 ± 0.263 ng/mg
BW gain ([5]; after 10 weeks of HFD, 0.12 mol/kg daily IP): 20.49±2.10%
Daily food intake ([5]; during HFD and treatment): 2.17 ± 0.09 g/day
Circulating plasma insulin levels [5, 10]: 0.582 ± 0.020 ng/mL
Plasma Free Fatty Acids [5, 10]: 0.766 ± 0.043 µmol/mL
Plasma Glycerol [5, 10]: 11.771 ± 1.249 µmol/mL
TGs content in muscle ([5]; per total protein): 11.54 ± 0.17 µmol/mg
TGs content in the liver ([5]; per total protein): 16.23 ± 1.95 µmol/mg
Core body temperature (rectal probe) ([6]; fourth week of HFD): 37.94±0.10 °C
Tail temperature at the tail base (thermography) ([6]; fourth week of HFD): 30.07±0.54 °C
BAT temperature (thermography) ([6]; HFD fed mice, fourth week): 38.25±0.25 °C
Resting membrane potential [7]: −35.70±1.02 mV
Changes in resting membrane potential ([7]; AMPH vs Vehicle, FIGS. 5A, B): no significant changes
Maximum firing frequency ([7]; current-clamp mode): 37.60±1.07 Hz and 41.00±1.43 Hz

CNCCC(Oc1ccccc1OC)c1ccccc1 (centres unmarked) [Nisoxetine, Nisoxetine hydrochloride]
NE accumulation in SAMs ([8]; ACh-activated SCG explants, 2 hours): prevented NE accumulation in SAMs
Uptake of NE by SAMs (NE content in CD45+F4/80+ cells) ([8]; optogenetic stimulation of SCG explants): prevented

C#CCN(C)CCCOc1ccc(Cl)cc1Cl [clorgyline, Clorgyline]
Intracellular NE levels in SAMs [9]: nearly double intracellular NE levels
NE levels in medium [9]: increased NE levels in medium
